In patent US7491794B2, “Macrocyclic compounds as inhibitors of viral replication” (Intermune, Inc., priority 2003, dated 2009):
Like-named read-outs stand apart in the source and are kept apart here.

How the values were obtained:
[1] = test system: HCV sub-genomic replicon, GS4.3; test: Quantitation by ELISA of NPTII in the HCV sub-genomic replicon, GS4.3, Section B; type: cell-based; details: Hepatitis C virus, read-out: Replicon EC50
Method in brief: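 NPTII marker protein in lysates was quantified by ELISA read at 450 nm after 72 h inhibitor exposure (3-fold series, final DMSO 1%, G418-free medium) of HuH-7 cells stably harbouring the subgenomic HCV replicon. Values relative to DMSO-treated controls; 4-parameter curves gave EC50.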

[2] = biological target: T1, NS3-NS4A protease (Hepatitis C virus genotype 1a, UniProt P27958); test: NS3-NS4A protease assay (NS3 inhibition assay, RETS1 substrate), Section B; type: biochemical; details: read-out: NS3-NS4A IC50
T1 construct: Recombinant E. coli or Baculovirus full-length NS3 was diluted to 3.33 μM with assay buffer; made in house; host or cells: E. coli or baculovirus (BV) system
T1 sequence (P27958 1027-1657): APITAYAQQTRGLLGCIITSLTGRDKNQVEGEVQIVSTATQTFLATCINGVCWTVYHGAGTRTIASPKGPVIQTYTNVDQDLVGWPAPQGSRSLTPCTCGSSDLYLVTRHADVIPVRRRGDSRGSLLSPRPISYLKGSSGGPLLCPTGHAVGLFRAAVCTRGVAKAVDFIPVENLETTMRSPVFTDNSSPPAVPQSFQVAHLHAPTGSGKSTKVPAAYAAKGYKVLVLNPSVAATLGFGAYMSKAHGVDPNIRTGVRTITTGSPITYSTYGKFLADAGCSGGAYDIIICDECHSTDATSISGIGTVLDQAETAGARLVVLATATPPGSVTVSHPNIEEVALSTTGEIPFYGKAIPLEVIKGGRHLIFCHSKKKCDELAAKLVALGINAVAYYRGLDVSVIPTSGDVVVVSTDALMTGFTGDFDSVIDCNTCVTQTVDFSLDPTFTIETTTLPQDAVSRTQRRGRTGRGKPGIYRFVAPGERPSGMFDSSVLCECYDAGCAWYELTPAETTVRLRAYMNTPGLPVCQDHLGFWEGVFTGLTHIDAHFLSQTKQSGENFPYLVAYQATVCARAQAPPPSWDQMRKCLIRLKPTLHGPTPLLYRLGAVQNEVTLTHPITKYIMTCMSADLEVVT
Method in brief: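 Kinetic fluorescence read (335 nm excitation, 495 nm emission, 30 min) of RETS1 cleavage by NS3/NS4A-2 complex, 2 nM E. coli or 3 nM baculovirus NS3, after 10 min room-temperature compound pre-incubation. Four-parameter-fit IC50s converted to Ki by Cheng–Prusoff, Ki=IC50/(1+[S]/Km).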

Structure (SMILES) | EC50 ([1]; GS4.3 cells, 72 h incubation) [nM] | IC50 [2] [nM] | EC50 ([1]; 72 h) [nM]
CC(C)(C)NC(=O)N[C@H]1CCCCC/C=C\[C@@H]2C[C@@]2(C(=O)NS(=O)(=O)C2CC2)NC(=O)[C@@H]2C[C@@H](OC(=O)N3Cc4cc(Cl)c(Cl)cc4C3)CN2C1=O [AR00320447, (1S,4R,6S,14S,18R)-5,6-Dichloro-1,3-dihydro-isoindole-2-carboxylic acid 14-(3-tert-butyl-ureido)-4-cyclopropanesulfonylaminocarbonyl-2,15-dioxo-3,16-diaza-tricyclo[14.3.0.0^4,6]nonadec-7-en-18-yl ester] | < 1000 | < 100 | 
O=C(N[C@H]1CCCCC/C=C\[C@@H]2C[C@@]2(C(=O)O)NC(=O)[C@@H]2C[C@@H](OC(=O)N3Cc4ccc(Cl)cc4C3)CN2C1=O)O[C@@H]1CCOC1 [AR00320448, (1S,4R,6S,14S,18R)-18-(5-Chloro-1,3-dihydro-isoindole-2-carbonyloxy)-2,15-dioxo-14-(tetrahydro-furan-3R-yloxycarbonylamino)-3,16-diaza-tricyclo[14.3.0.0^4,6]nonadec-7-ene-4-carboxylic acid] | < 10000 | < 1000 | 
CC(C)(C)NC(=O)N[C@H]1CCCCC/C=C\[C@@H]2C[C@@]2(C(=O)O)NC(=O)[C@@H]2C[C@@H](OC(=O)N3Cc4ccc(Cl)cc4C3)CN2C1=O [AR00320449, (1S,4R,6S,14S,18R)-14-(3-tert-Butyl-ureido)-18-(5-chloro-1,3-dihydro-isoindole-2-carbonyloxy)-2,15-dioxo-3,16-diaza-tricyclo[14.3.0.0^4,6]nonadec-7-ene-4-carboxylic acid] | < 10000 | < 100 | 
CC(C)(C)NC(=O)N[C@H]1CCCCC/C=C\[C@@H]2C[C@@]2(C(=O)O)NC(=O)[C@@H]2C[C@@H](OC(=O)N3Cc4cc(Cl)c(Cl)cc4C3)CN2C1=O [AR00320450, (1S,4R,6S,14S,18R)-14-(3-tert-Butyl-ureido)-18-(5,6-dichloro-1,3-dihydro-isoindole-2-carbonyloxy)-2,15-dioxo-3,16-diaza-tricyclo[14.3.0.0^4,6]nonadec-7-ene-4-carboxylic acid] | < 10000 | < 1000 | 
O=C(N[C@H]1CCCCC/C=C\[C@@H]2C[C@@]2(C(=O)NS(=O)(=O)C2CC2)NC(=O)C2C[C@@H](OC(=O)N3CCc4ccccc4C3CN3CCCCC3)CN2C1=O)OC1CCCC1 (stereo partly drawn) [AR00320506, (1S,4R,6S,14S,18R)-1-Piperidin-1-ylmethyl-3,4-dihydro-1H-isoquinoline-2-carboxylic acid 14-cyclopentyloxycarbonylamino-4-cyclopropanesulfonylaminocarbonyl-2,15-dioxo-3,16-diaza-tricyclo[14.3.0.0^4,6]nonadec-7-en-18-yl ester] | < 100 | < 100 | 
CC(C)(C)OC(=O)N[C@H]1CCCCC/C=C\[C@@H]2C[C@@]2(C(=O)NS(=O)(=O)c2ccccc2)NC(=O)[C@@H]2C[C@@H](OC(=O)N3CCc4ccccc4C3)CN2C1=O [AR00320547, (1S,4R,6S,14S,18R)-3,4-Dihydro-1H-isoquinoline-2-carboxylic acid 4-benzenesulfonylaminocarbonyl-14-tert-butoxycarbonylamino-2,15-dioxo-3,16-diaza-tricyclo[14.3.0.0^4,6]nonadec-7-en-18-yl ester] | < 100 | < 100 | 
COc1ccc(S(=O)(=O)NC(=O)[C@@]23C[C@H]2/C=C\CCCCC[C@H](NC(=O)OC(C)(C)C)C(=O)N2C[C@H](OC(=O)N4CCc5ccccc5C4)C[C@H]2C(=O)N3)cc1 [AR00320548, (1S,4R,6S,14S,18R)-3,4-Dihydro-1H-isoquinoline-2-carboxylic acid 14-tert-butoxycarbonylamino-4-(4-methoxy-benzenesulfonylaminocarbonyl)-2,15-dioxo-3,16-diaza-tricyclo[14.3.0.0^4,6]nonadec-7-en-18-yl ester] |  | < 100 | < 100
Cc1ccc(S(=O)(=O)NC(=O)[C@@]23C[C@H]2/C=C\CCCCC[C@H](NC(=O)OC(C)(C)C)C(=O)N2C[C@H](OC(=O)N4CCc5ccccc5C4)C[C@H]2C(=O)N3)cc1 [AR00320549, (1S,4R,6S,14S,18R)-3,4-Dihydro-1H-isoquinoline-2-carboxylic acid 14-tert-butoxycarbonylamino-2,15-dioxo-4-(toluene-4-sulfonylaminocarbonyl)-3,16-diaza-tricyclo[14.3.0.0^4,6]nonadec-7-en-18-yl ester] |  | < 100 | < 100
O=C(N[C@H]1CCCCC/C=C\[C@@H]2C[C@@]2(C(=O)NS(=O)(=O)C2CC2)NC(=O)[C@@H]2C[C@@H](OC(=O)N3CCc4ccccc4[C@@H]3CN3CCCCC3)CN2C1=O)OC1CCCC1 [AR00320556, (1S,4R,6S,14S,18R)-1-Piperidin-1R-ylmethyl-3,4-dihydro-1H-isoquinoline-2-carboxylic acid 14-cyclopentyloxycarbonylamino-4-cyclopropanesulfonylaminocarbonyl-2,15-dioxo-3,16-diaza-tricyclo[14.3.0.0^4,6]nonadec-7-en-18-yl ester] | < 100 | < 100 | 
O=C(N[C@H]1CCCCC/C=C\[C@@H]2C[C@@]2(C(=O)NS(=O)(=O)C2CC2)NC(=O)[C@@H]2C[C@@H](OC(=O)N3CCc4ccccc4[C@H]3CN3CCCCC3)CN2C1=O)OC1CCCC1 [AR00320557, (1S,4R,6S,14S,18R)-1-Piperidin-1S-ylmethyl-3,4-dihydro-1H-isoquinoline-2-carboxylic acid 14-cyclopentyloxycarbonylamino-4-cyclopropanesulfonylaminocarbonyl-2,15-dioxo-3,16-diaza-tricyclo[14.3.0.0^4,6]nonadec-7-en-18-yl ester] | < 100 | < 100 | 
O=C(NC1CCCC1)N[C@H]1CCCCC/C=C\[C@@H]2C[C@@]2(C(=O)NS(=O)(=O)C2CC2)NC(=O)[C@@H]2C[C@@H](OC(=O)N3Cc4ccc(Cl)cc4C3)CN2C1=O [AR00320574, (1S,4R,6S,14S,18R)-5-Chloro-1,3-dihydro-isoindole-2-carboxylic acid 14-(3-cyclopentyl-ureido)-4-cyclopropanesulfonylaminocarbonyl-2,15-dioxo-3,16-diaza-tricyclo[14.3.0.0^4,6]nonadec-7-en-18-yl ester] | < 100 | < 100 | 
O=C(NC1CCCC1)N[C@H]1CCCCC/C=C\[C@@H]2C[C@@]2(C(=O)NS(=O)(=O)C2CC2)NC(=O)[C@@H]2C[C@@H](OC(=O)N3Cc4cc(Cl)c(Cl)cc4C3)CN2C1=O [AR00320575, (1S,4R,6S,14S,18R)-5,6-Dichloro-1,3-dihydro-isoindole-2-carboxylic acid 14-(3-cyclopentyl-ureido)-4-cyclopropanesulfonylaminocarbonyl-2,15-dioxo-3,16-diaza-tricyclo[14.3.0.0^4,6]nonadec-7-en-18-yl ester] | < 1000 | < 100 | 
COc1ccc2[nH]c3c(c2c1)CCN(C(=O)O[C@@H]1C[C@H]2C(=O)N[C@]4(C(=O)O)C[C@H]4/C=C\CCCCC[C@H](NC(=O)OC(C)(C)C)C(=O)N2C1)C3 [AR00320577, (1S,4R,6S,14S,18R)-14-tert-Butoxycarbonylamino-18-(6-methoxy-1,3,4,9-tetrahydro-b-carboline-2-carbonyloxy)-2,15-dioxo-3,16-diaza-tricyclo[14.3.0.0^4,6]nonadec-7-ene-4-carboxylic acid] | < 10000 | < 1000 | 
